According to PMC3009643 (BMC Neuroscience, 2010):
pEC50, pIC50: −log10 of the molar value. Where two headings read alike, the source gives them in different places.

Assays:
[1] = target: T1, rNav1.4 α-subunit (Rattus norvegicus, UniProt P15390); assay: SBFI sodium influx assay in rNav1.4-HEK 293 cells; format: cell-based; conditions: for maximal response of sodium influx, area under the curve (AUC, fluorescence × time) (95%CI) / EC50: rNav1.4-HEK 293 cells; for EC50: SBFI, 37°C, read-out: EC50 (nM) (95% CI), sodium influx
T1 construct: host or cells: HEK 293

[2] = tested on: neuro-2a mouse neuroblastoma cells; conditions: cited from earlier work; for fold less potent than ATX in producing toxicity: neuro-2a mouse neuroblastoma cells
[3] = target: T2, rNav1.2 α-subunit (Rattus norvegicus, UniProt P04775); assay: cell-based; format: cell-based; conditions: for EC50: rNav1.2-CHL 1610 cells, SBFI, 37°C, read-out: EC50 (nM) (95% CI), sodium influx
T2 construct: host or cells: CHL 1610 (Chinese hamster lung)

[4] = target: T3, calcium-permeable DEAA mutant of rNav1.4 α-subunit (Rattus norvegicus, UniProt P15390, K1237A); assay: fluo-3 calcium influx assay in DEAA-HEK 293 cells; format: cell-based; conditions: for pEC50: fluo-3, read-out: EC50, Ca2+ influx (95% CI)
T3 construct: host or cells: HEK 293

[5] = tested on: CHL 1610 cells; assay: SBFI sodium influx assay in wild type CHL 1610 parent cells; format: cell-based, Chinese hamster; conditions: wild type CHL 1610 parent cell line
[6] = tested on: HEK 293 cells; assay: SBFI sodium influx assay in wild type HEK 293 parent cells; format: cell-based, human; conditions: wild type HEK 293 parent cell line
[7] = target: T4, rNav1.5 α-subunit (Rattus norvegicus, UniProt P15389); assay: SBFI sodium influx assay in rNav1.5-CHL 1610 cells; format: cell-based; conditions: for EC50: rNav1.5-CHL 1610 cells, SBFI, 37°C, read-out: EC50 (nM) (95% CI), sodium influx
T4 construct: host or cells: CHL 1610 (Chinese hamster lung)

[8] = tested on: rNav1.2-CHL 1610, rNav1.4-HEK 293 and rNav1.5-CHL 160 cells; format: cell-based; conditions: 1 μM ATX for 24 h; preliminary experiments
Experimental: Supplementary file 1471-2202-11-154-S1.TIFF: Additional file 1 Lack of toxic effect of ATX in rNav1.2-CHL 1610, rNav1.4-HEK 293 and rNav1.5-CHL 160 cells. The cells were exposed to 1 μM ATX for 24 h and the medium was collected and subjected to LDH activity measurement as described by Koh and Choi (1987; Koh, JY, and Choi, DW. Quantitative determination of glutamate mediated cortical neuronal injury in cell culture by lactate dehydrogenase efflux assay. J Neurosci Methods 20:83-90). […] Click here for file

[9] = tested on: neocortical neurons; conditions: cited from earlier work
[10] = tested on: sodium channel neurotoxin site 2; conditions: cited from earlier work

T4 sequence (P15389 whole entry): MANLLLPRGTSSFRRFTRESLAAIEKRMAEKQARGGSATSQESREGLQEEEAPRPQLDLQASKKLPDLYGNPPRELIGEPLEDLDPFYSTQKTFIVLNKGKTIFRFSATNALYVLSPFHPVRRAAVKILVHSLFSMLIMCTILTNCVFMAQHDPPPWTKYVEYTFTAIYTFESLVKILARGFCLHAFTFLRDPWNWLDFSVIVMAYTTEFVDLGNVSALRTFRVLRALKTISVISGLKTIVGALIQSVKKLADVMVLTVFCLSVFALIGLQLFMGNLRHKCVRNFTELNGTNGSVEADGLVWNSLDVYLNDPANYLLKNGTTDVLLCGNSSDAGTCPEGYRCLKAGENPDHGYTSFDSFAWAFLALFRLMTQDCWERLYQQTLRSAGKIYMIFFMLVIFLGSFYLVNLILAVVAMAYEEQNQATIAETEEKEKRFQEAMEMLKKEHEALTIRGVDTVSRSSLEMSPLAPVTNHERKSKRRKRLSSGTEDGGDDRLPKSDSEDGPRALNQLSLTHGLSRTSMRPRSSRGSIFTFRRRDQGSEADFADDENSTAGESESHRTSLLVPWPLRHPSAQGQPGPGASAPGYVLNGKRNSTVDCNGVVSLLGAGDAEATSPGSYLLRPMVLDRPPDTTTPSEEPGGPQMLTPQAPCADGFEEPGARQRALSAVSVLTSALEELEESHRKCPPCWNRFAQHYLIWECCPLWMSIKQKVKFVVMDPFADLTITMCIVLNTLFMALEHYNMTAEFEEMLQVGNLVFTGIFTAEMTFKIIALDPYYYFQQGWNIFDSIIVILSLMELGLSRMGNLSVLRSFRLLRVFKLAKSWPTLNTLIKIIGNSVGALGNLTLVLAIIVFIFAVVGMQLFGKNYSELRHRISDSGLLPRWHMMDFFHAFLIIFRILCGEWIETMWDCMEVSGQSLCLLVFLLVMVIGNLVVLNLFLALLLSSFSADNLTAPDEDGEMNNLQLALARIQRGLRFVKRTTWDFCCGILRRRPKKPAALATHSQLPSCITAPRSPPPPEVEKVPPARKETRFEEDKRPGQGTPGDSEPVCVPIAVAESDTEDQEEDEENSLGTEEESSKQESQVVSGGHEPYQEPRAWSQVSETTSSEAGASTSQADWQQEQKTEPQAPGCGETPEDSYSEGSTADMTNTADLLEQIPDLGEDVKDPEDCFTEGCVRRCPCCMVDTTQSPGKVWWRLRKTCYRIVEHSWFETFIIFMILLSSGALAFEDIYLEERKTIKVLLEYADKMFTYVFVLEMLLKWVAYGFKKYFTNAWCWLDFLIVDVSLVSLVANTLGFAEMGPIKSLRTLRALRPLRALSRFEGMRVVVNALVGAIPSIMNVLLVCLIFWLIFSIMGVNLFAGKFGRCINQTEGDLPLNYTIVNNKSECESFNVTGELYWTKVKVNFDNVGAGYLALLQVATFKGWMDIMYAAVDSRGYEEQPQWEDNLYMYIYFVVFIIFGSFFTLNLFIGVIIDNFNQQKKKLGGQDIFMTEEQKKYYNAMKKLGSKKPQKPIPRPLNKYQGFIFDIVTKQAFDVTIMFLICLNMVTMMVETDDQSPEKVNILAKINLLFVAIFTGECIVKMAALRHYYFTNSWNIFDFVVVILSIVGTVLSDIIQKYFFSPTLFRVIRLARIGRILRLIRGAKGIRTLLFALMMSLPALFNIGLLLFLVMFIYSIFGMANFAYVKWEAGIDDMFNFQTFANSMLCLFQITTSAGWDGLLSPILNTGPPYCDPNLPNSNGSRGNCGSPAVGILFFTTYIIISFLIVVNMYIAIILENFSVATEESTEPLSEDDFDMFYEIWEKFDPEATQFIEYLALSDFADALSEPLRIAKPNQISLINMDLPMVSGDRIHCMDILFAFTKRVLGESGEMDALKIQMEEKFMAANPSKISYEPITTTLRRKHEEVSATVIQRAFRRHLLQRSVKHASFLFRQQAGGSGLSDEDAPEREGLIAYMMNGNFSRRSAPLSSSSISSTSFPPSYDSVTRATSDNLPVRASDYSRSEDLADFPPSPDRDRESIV
T1 sequence (P15390 whole entry): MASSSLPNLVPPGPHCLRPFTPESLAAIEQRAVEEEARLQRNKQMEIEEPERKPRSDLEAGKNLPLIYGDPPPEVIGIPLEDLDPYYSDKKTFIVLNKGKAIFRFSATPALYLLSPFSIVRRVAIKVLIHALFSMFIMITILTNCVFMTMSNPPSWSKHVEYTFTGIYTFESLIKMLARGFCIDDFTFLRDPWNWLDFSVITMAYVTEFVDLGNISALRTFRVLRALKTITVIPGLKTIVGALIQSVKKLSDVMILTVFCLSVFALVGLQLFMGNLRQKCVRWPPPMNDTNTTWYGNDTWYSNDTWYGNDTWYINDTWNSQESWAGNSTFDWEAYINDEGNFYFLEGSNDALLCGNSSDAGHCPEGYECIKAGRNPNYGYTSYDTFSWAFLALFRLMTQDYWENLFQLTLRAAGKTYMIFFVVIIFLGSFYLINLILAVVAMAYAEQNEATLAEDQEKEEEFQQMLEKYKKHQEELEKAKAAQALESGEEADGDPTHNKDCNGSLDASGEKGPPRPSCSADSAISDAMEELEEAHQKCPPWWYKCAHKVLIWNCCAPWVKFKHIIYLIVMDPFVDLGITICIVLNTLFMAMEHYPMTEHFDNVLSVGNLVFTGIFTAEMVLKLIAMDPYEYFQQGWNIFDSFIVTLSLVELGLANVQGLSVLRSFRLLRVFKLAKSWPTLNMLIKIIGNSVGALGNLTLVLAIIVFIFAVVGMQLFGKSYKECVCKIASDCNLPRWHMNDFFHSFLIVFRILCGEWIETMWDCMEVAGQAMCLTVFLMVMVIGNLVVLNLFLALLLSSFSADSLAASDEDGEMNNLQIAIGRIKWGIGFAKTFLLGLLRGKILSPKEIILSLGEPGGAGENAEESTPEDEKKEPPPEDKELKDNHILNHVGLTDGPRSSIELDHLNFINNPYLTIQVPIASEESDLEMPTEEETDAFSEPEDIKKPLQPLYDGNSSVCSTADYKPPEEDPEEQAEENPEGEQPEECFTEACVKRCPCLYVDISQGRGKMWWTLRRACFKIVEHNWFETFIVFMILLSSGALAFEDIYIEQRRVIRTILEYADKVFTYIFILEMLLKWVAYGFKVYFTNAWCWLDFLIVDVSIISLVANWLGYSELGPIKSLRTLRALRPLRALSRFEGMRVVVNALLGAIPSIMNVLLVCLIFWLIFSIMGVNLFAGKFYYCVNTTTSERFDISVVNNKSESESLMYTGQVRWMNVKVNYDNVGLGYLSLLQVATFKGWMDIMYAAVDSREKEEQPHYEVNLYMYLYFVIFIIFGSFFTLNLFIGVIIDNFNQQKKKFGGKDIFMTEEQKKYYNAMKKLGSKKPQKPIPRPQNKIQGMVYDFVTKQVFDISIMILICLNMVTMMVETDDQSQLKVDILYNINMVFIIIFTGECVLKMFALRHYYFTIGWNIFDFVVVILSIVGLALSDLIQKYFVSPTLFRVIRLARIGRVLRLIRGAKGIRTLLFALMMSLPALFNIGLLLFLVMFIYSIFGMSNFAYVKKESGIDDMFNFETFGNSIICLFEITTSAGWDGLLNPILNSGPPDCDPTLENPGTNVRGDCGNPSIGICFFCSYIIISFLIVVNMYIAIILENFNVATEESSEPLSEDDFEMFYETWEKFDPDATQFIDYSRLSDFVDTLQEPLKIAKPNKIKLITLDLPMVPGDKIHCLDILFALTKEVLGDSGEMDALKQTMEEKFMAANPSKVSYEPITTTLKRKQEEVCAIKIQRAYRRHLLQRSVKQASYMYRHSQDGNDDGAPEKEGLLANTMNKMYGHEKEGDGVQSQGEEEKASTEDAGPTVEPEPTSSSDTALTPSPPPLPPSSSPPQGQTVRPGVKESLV
T3 sequence (P15390 whole entry K1237A): as the sequence (P15390 whole entry) above, with K1237A counted along it

Compound: NC1=N[C@H](O)[C@H]2[C@H]3O[C@]4(O)O[C@@H]([C@@H](O)[C@@]2(N1)[C@@H]4O)[C@]3(O)CO [TTX, tetrodotoxin, reference compound]
- pIC50 ([1]; read-out: IC50, inhibition of ATX-induced sodium influx (95% CI)): 7.60

Compound: 8-demethyl-antillatoxin [reference compound]
- fold less potent than ATX in producing toxicity [2]: 244 fold

Compound: C=C1CC(=O)N[C@@H](C)C(=O)N(C)[C@@H](C(C)C)C(=O)NCC(=O)O[C@@H](/C(C)=C/C(C)=C/C(C)(C)C)[C@@H]1C [ATX, antillatoxin]
- EC50 [3]: 376 nM
- Efficacy (relative), sodium influx ([3]; rNav1.2, relative to ATX = 1): 1
- pEC50 ([4]; DEAA-HEK 293 cells): 6.78
- sodium influx (in words) [5]: minimal sodium influx
- sodium influx (in words) [6]: minimal sodium influx
- fold more potent than in neuronal rNav1.2, sodium influx ([7]; cardiac rNav1.5 versus rNav1.2): 2 fold
- EC50 [7]: 205 nM
- Efficacy (relative), sodium influx ([7]; rNav1.5, relative to ATX = 1): 1
- toxicity (LDH activity, in words) [8]: not toxic
- maximal response of sodium influx, area under the curve (AUC, fluorescence × time) (95%CI) ([1]; ATX alone): 439.4
- maximal response of sodium influx, area under the curve (AUC, fluorescence × time) (95%CI) ([1]; ATX in the presence of PbTx-2 (3 μM)): 537.9
- EC50 [1]: 165 nM
- Efficacy (relative), sodium influx ([1]; rNav1.4, relative to ATX = 1): 1
- fold more potent than in neuronal rNav1.2, sodium influx ([1]; skeletal muscle rNav1.4 versus rNav1.2): 2 fold

Compound: COc1ccc(C(=O)O[C@H]2CC[C@@]3(C)[C@@H]4CC[C@H]5[C@]6(O)C[C@H](O)[C@@]7(O)[C@@H](CN8C[C@@H](C)CC[C@H]8[C@@]7(C)O)[C@]6(O)C[C@@]53O[C@]24O)cc1OC [Veratridine, veratridine, reference compound]
- Efficacy (relative), sodium influx ([3]; rNav1.2, relative to ATX = 1): 0
- stimulation of Ca2+ influx (in words) ([4]; DEAA-HEK 293 cells): without effect
- Efficacy (relative), sodium influx ([7]; rNav1.5, relative to ATX = 1): 0
- efficacy, sodium influx ([9]; neocortical neurons): 0.67
- Efficacy (relative), sodium influx ([1]; rNav1.4, relative to ATX = 1): 0

Compound: CCC[C@@H](C)[C@H](O)[C@H](C)[C@H]1OC(=O)[C@H]([C@@H](C)O)NC(=O)[C@H](C(C)C)OC(=O)[C@H](C)[C@H](O)[C@H]([C@@H](C)CC)NC(=O)[C@@]2(C)CSC(=N2)[C@@]2(C)CSC(=N2)c2csc(n2)C[C@H](OC)[C@@H]1C [Hoiamide A, hoiamide A]
- fold more potent than veratridine, inhibition of [3H]BTX binding [10]: 360 fold
- pIC50 ([10]; read-out: IC50, inhibition of [3H]BTX binding): 7.03

Compound: C=C1CC(=O)N[C@@H](C)C(=O)N(C)[C@@H](C(C)C)C(=O)NCC(=O)O[C@@H](/C(C)=C/CCC(C)(C)C)[C@@H]1C [DH-ATX, 8-demethyl-8,9-dihydro-antillatoxin]
- fold less potent than ATX in producing toxicity [2]: 27 fold
- pEC50 ([2]; neuro-2a neuroblastoma cells, read-out: EC50, toxicity): 5.92
- EC50 [3]: 1130 nM
- Efficacy (relative), sodium influx ([3]; rNav1.2, relative to ATX = 1): 0.32
- fold less potent than ATX, stimulation of sodium influx ([3]; stated for all three cell lines (rNav1.2-CHL 1610, rNav1.4-HEK 293, rNav1.5-CHL 1610)): 2.5 - 4 fold
- pEC50 ([4]; DEAA-HEK 293 cells): 6.17
- relative efficacy, Ca2+ influx ([4]; DEAA-HEK 293 cells, relative to ATX): 0.24
- EC50 [7]: 595 nM
- Efficacy (relative), sodium influx ([7]; rNav1.5, relative to ATX = 1): 0.25
- EC50 [1]: 644 nM
- Efficacy (relative), sodium influx ([1]; rNav1.4, relative to ATX = 1): 0.33

Compound: brevetoxin-2 [PbTx-2, reference compound]
- Efficacy (relative), sodium influx [3]: 0
- stimulation of Ca2+ influx (in words) [4]: without effect
- Efficacy (relative), sodium influx [7]: 0
- efficacy, sodium influx [9]: 0.81
- Efficacy (relative), sodium influx [1]: 0
